{"source": "patent US20110015080A1", "about": "“Solution-based methods for RNA expression profiling” (MASSACHUSETTS INSTITUTE OF TECHNOLOGY, priority 2005, published 2011)", "system": "HL-60 cells", "test": "Bead-based miRNA expression profiling of HL-60 cells treated with all-trans retinoic acid", "type": "cell-based, human", "conditions": "1 μM all-trans retinoic acid, 1, 3 and 5 days", "description": "Details of sample information are available in Table 9. Total RNAs were prepared from tissues or cell lines using TRIzol (INVITROGEN™, Carlsbad, Calif.), as described (Ramaswamy et al., 2001), and in compliance with IRB protocols. Leukemia bone marrow mononuclear cells were collected from patients treated at ST. JUDE […]′S […] HOSPITAL™ and at DANA-FARBER CANCER […]™ and their immunophenotype and genotype determined as previously described (Ferrando et al., 2002; Yeoh et al., 2002). Normal mouse lung and mouse lung cancer samples were collected from KRasLA1 mice, and genotyped as described (Johnson et al., 2001). Lungs from four- to five-month old mice were inflated with phosphate-buffered saline prior to removal. Individual lung tumors and normal lungs were dissected and immediately frozen on dry ice before RNA preparation. HL-60 cells were plated at 1.5×10^5 cell/ml and induced to differentiate by 1 μM all-trans retinoic acid (SIGMA™, St. Louis, Mo.; in ethanol). […]\nmiRNA capture probes were 5′-amino-modified oligonucleotides with a 6-carbon linker (IDT). […] Median fluorescence intensity values were measured.\nProfiling data were first scaled according to the post-labeling-controls and then the pre-labeling-controls, in order to normalize readings from different probe/bead sets for the same sample, and to normalize for the labeling efficiency, as detailed in Materials and Methods of Example 3. […]"}
{"compound": "CC1=C(/C=C/C(C)=C/C=C/C(C)=C/C(=O)O)C(C)(C)CCC1", "note": "[tretinoin, all-trans-retinoic acid]", "values": [{"measurement": "miRNA expression in HL-60 cells", "value": "induction of many miRNAs coincident with differentiation"}, {"measurement": "miRNA expression in HL-60 cells", "setting": "listed as ATRA", "value": "increased expression of many miRNAs"}]}
